Oligonucleotides are written 5' to 3', each unit as a sugar letter and its base; * is a phosphorothioate linkage, no mark a phosphodiester; rarer units and linkages stand in square brackets, end groups in braces. Plain capitals give the bases only. e = 2'-O-(2-methoxyethyl) (MOE); [5mC] = 5-methylcytosine; d = 2'-deoxy (DNA)

The subject of one series is Mouse B16 melanoma cells. Description: Cell number of B16 melanoma cells after antisense treatment. The class given is cell-based. The note with it: 24 hours after transfection. On the procedure: Mouse B16 melanoma cells were grown in RPMI 1640 (Life Technologies, Inc., Grand Island, N.Y.) medium supplemented with 10% fetal bovine serum, 2 mM L-glutamine, 1 mM sodium pyruvate, 1% MEM nonessential amino acids and 100 IU/ml penicillin/streptomycin.
(§1) Cells were treated with ISIS 17152, targeted to mouse STAT3, or the 3-base mismatch control, ISIS 28084 ([…]; SEQ ID NO: 151). Cells were transfected with oligonucleotide using LipofectAMINE PLUSJ reagent (GibcoBRL). Oligonucleotide was pre-complexed with LipofectAMINE PLUSJ by adding the oligonucleotide to 100 μl serum-free RPMI 1640 medium, then 6 μl LipofectAMINE PLUSJ reagent was added, the sample was mixed well and incubated for 15 minutes at room temperature. An additional 4 μl of LipofectAMINE PLUSJ reagent was diluted to 100 μl in serum-free RPMI. This diluted LipofectAMINE PLUSJ was mixed with the pre-complexed oligonucleotide/LipofectAMINE PLUSJ mixture and incubated for 15 minutes at room temperature. 800 μl of serum-free RPMI 1640 was added, and the resulting oligonucleotide-LipofectAMINE PLUSJ-medium mixture (approximately 1 ml) was added to cells in a 6-well plate. After 3 hours incubation, 1 ml of RPMI 1640 supplemened with 20% fetal bovine serum was added. Oligonucleotide concentrations were 200 nM or 300 nM.
24 hours after transfection, cells were counted to determine the effect of antisense treatment on cell death. Cells were harvested at 24 hours post transfection for western blot analysis and at 48 hours post-transfection for Annexin-V staining for apoptosis.

For the next series, the system named is BCL1 cells. Description: BCL1 cell proliferation, [3H]-thymidine incorporation. The class given is cell-based, mouse. The note with it: summary of Table 6. On the procedure:
The effect of ISIS 17152 (SEQ ID NO. 99) on BCL1 proliferation was determined. BCL1 cells contain constitutively active STAT3 which is thought to be responsible for their proliferation. BCL1 cells were grown, treated and processed as described in Example 2.
1×10^5 BCL1 cells were incubated in 96-well plates in […] complete RPMI following electroporation. Cultures were pulsed with […] of [^3H]-thymidine for the last 8 hours of culture and cells were harvested and analyzed for thymidine incorporation as described in Francis, D. A. et al. (Int. Immunol., 1995, 7, 151-161) 48 hours after electroporation.
For orientation: Uptake of a labelled nucleoside into DNA is a usual measure of proliferation.

Another series deals with STAT3 protein. Description: STAT3 protein in B16 cells, Western blot. It is filed as cell-based, mouse. Conditions: 200 nM or 300 nM, 24 hours after treatment. On the procedure: as §1
24 hours after transfection, cells were counted to determine the effect of antisense treatment on cell death. Cells were harvested at 24 hours post transfection for western blot analysis and at 48 hours post-transfection for Annexin-V staining for apoptosis. […]

A further series relates to RANTES mRNA. The series is described as follows: Induction of chemokines in BCL1 cells, RNase protection assay: RANTES. It is filed as cell-based, mouse. The note with it: statement covers all three chemokines. On the procedure: The effect of ISIS 17152 (SEQ ID. NO. 99) on chemokine levels was determined. BCL1 cells were grown, treated and processed as described in Example 2. Chemokine gene expression was induced in BCL1 cells by addition of […] of a CpG-containing oligonucleotide to the media 16 hours following antisense oligonucleotide electroporation. CpG-containing oligonucleotides are immune-stimulatory (Krieg, A. M., et al., Nature, 1995, 374, 546-549). The levels of chemokines were measured eight hours later using RNase protection assay as described in Example 2 with a mouse chemokine template set, Mck-5 (Pharmingen, San Diego, Calif.).

The next series relates to Mouse STAT3 protein. Description: STAT3 protein levels in BCL1 cells by Western blot, dose response. It is filed as cell-based. Conditions: compared with mismatch control. On the procedure:
ISIS 17152 (SEQ ID. NO. 99) was chosen for further study. The effect of this oligonucleotide on protein levels was determined by Western blot. ISIS 23177 (SEQ ID NO. 106), a 3 base mismatch, was used as a control. BCL1 cells were grown, treated and processed as described in Example 2.
Nuclear extracts from primary B cells and B lymphoma cell lines were prepared as described in Karras, J. G., et al. (J. Exp. Med., 1997, 185, 1035-1042).
Western blotting was performed as described in Karras, J. G. et al. (J. Immunol., 1996, 157, 2299). STAT1 and STAT3 antibodies were obtained from UBI (Lake Placid, N.Y.).
On the technique in general: In western blotting, separated proteins are transferred to a membrane and probed.

Series [1] relates to IgM secretion by BCL1 cells. The series is described as follows: BCL1 IgM secretion, ELISA. It is filed as cell-based, mouse. The note with it: compared with mismatch control. On the procedure: The effect of ISIS 17152 (SEQ ID. NO. 99) on IgM secretion levels was determined. STAT3 has been implicated in regulation of IgM expression (Faris, M., et al., Immunology, 1997, 90, 350-357). BCL1 cells were grown, treated and processed as described in Example 2.
1×10^6 BCL1 cells were incubated in 12-well plates in 2 mL complete RPMI following electroporation. Supernatant was replaced at 24 hour post electroporation with fresh medium. 48 hours later, supernatants were harvested, centrifuged to remove cells, and assayed for IgM content using the OPT-EIA™ ELISA kit (Pharmingen, San Diego, Calif.) and capture and detecting antibodies for mouse IgM (Southern Biotechnology, Birmingham, Ala.).
Background: An ELISA detects its analyte on a solid surface through an enzyme-linked reagent.

The subject of another series is B16 cells. Description: Apoptosis in B16 cells, Annexin V-PE staining and flow cytometry. The class given is cell-based, mouse. On the procedure: as §1
24 hours after transfection, cells were counted to determine the effect of antisense treatment on cell death. […]
Apoptosis in B16 cells was measured by staining with Annexin V-PE (Clontech) and flow cytometry analysis 48 hours after antisense treatment. […]

Take “AAAAAGTGCCCAGATTGCCC (antisense eA*eA*eA*eA*eA*dG*dT*dG*dC*dC*dC*dA*dG*dA*dT*eT*eG*e[5mC]*e[5mC]*e[5mC]) [ISIS 17152]”: the cell number in the series with Mouse B16 melanoma cells (200 nM, Expt 1) was 3.8 × 10^5; with Mouse B16 melanoma cells (200 nM, Expt 2) it was 6.8 × 10^5; in the series on Mouse B16 melanoma cells (200 nM, Expt 3), 1.8 × 10^5; with Mouse B16 melanoma cells (300 nM, Expt 2), 3.5 × 10^5; in the series on Mouse B16 melanoma cells (300 nM, Expt 3), 2.2 × 10^5. Further, the “reduction of BCL1 cell proliferation” value in the series on BCL1 cells is “approximately 50%”. Also, the “STAT3 protein production (in words)” value with STAT3 protein is listed as “significantly reduced”. In the series with RANTES mRNA, the “expression of the chemokines, RANTES, MIP-1 and MIP-1 (in words)” value is listed as “able to induce the expression of the chemokines”. For the same sequence, the “reducing STAT3 protein levels (in words)” value in the series with Mouse STAT3 protein is reported as “significantly better at reducing STAT3 protein levels than the mismatch control”. In addition, in series [1], the “reducing IgM secretion (in words)” value is given as “significantly better at reducing IgM secretion than the mismatch control”. Also, the “cells staining positive for Annexin-V” value in the series on B16 cells (48 hours after antisense treatment) is 29.84%. In addition, the “increase in apoptotic cells” value in the series on B16 cells (versus mock and control oligonucleotide) is given as “nearly threefold increase”.

The record behind these values is patent US20050074879A1, “Antisense oligonucleotide modulation of STAT3 expression” (priority 2000, published 2005).
